# Results taken from the supplement of paper PMC8253809.
# Tests used:
# DIPGX9 [1] = diffuse intrinsic pontine glioma line; assay: maximal growth inhibition (yFin) relative to DMSO / staurosporine; higher = more efficacious
# How it was run: (§1)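 Patient-derived pHGG/DIPG cell lines and astrocyte controls were grown on 1% Geltrex-coated 384-well plates and exposed by pin tool to a 10-point threefold dilution series (mean top concentration 35 μM), in triplicate. Exposure was 7 days (iAstro 3 days) at 37 °C, 5% CO2. CellTiter-Glo luminescence was log2-transformed, normalised per plate to % activity between negative (solvent) and positive control wells, and pooled. EC50 and maximal response (yFin) come from the lowest-AICc three- or four-parameter log-logistic fit.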
# SUDIPGXVII [2] = diffuse intrinsic pontine glioma line; assay: as above
# How it was run: as §1
# DIPGX29 [3] = H3.3 K27M diffuse intrinsic pontine glioma line; assay: as above
# How it was run: as §1
# SUDIPGXIII [4] = diffuse intrinsic pontine glioma line; assay: as above
# How it was run: as §1
# DIPGX37 [5] = H3.3 K27M diffuse intrinsic pontine glioma line; assay: as above
# How it was run: as §1
# SUDIPGXIX [6] = diffuse intrinsic pontine glioma line; assay: as above
# How it was run: as §1
# SUDIPGIV [7] = diffuse intrinsic pontine glioma line; assay: as above
# How it was run: as §1
# SUDIPGVI [8] = diffuse intrinsic pontine glioma line; assay: as above
# How it was run: as §1
# HGGX39 [9] = paediatric high-grade glioma line; assay: as above
# How it was run: as §1
# HGGX6 [10] = H3.3 G34R paediatric high-grade glioma line; assay: as above
# How it was run: as §1
# HABS [11] = astrocyte control; assay: as above
# How it was run: as §1
# DIPGX7 [12] = H3.3 K27M diffuse intrinsic pontine glioma line; assay: as above
# How it was run: as §1
# DIPGX9 [13] = assay: area under dose-response curve of % growth inhibition (log2 RLU vs DMSO / staurosporine), 1e-11 to 1e-4 M (% x log10 M); higher = more growth inhibition
# How it was run: (§2)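 On 1% Geltrex-coated 384-well plates, patient-derived pHGG/DIPG cell lines and astrocytes were treated in triplicate across 10 threefold dilutions (mean top concentration 35 μM) for 7 days, with iAstro treated for 3 days, at 37 °C, 5% CO2. Log2-transformed CellTiter-Glo luminescence was normalised per plate to % activity between solvent and positive controls. Area under the curve was obtained by the trapezoid rule from a log-logistic fit, or from a smoothing spline when that fit failed.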
# iAstro [14] = astrocyte control; assay: as above
# How it was run: as §2
# SUDIPGXXI = diffuse intrinsic pontine glioma line; assay: as above
# How it was run: as §2
# SUDIPGXVII [15] = assay: as above
# How it was run: as §2
# HGGX42 [16] = H3.3 G34R paediatric high-grade glioma line; assay: as above
# How it was run: as §2
# DIPGX29 [17] = assay: as above
# How it was run: as §2
# SUDIPGXIII [18] = assay: as above
# How it was run: as §2
# DIPGX37 [19] = assay: as above
# How it was run: as §2
# SUDIPGXIX [20] = assay: as above
# How it was run: as §2
# SUDIPGIV [21] = assay: as above
# How it was run: as §2
# HGGX2 [22] = paediatric high-grade glioma line; assay: as above
# How it was run: as §2
# SUDIPGVI [23] = assay: as above
# How it was run: as §2
# HGGX39 [24] = assay: as above
# How it was run: as §2
# HGGX6 [25] = assay: as above
# How it was run: as §2
# HABS [26] = assay: as above
# How it was run: as §2
# DIPGX7 [27] = assay: as above
# How it was run: as §2
# DIPGX9 [28] = assay: EC50 (inflection of fitted growth-inhibition curve) (log10 M)
# How it was run: as §1
# SUDIPGXVII [29] = assay: as above
# How it was run: as §1
# DIPGX29 [30] = assay: as above
# How it was run: as §1
# SUDIPGXIII [31] = assay: as above
# How it was run: as §1
# DIPGX37 [32] = assay: as above
# How it was run: as §1
# SUDIPGXIX [33] = assay: as above
# How it was run: as §1
# SUDIPGIV [34] = assay: as above
# How it was run: as §1
# SUDIPGVI [35] = assay: as above
# How it was run: as §1
# HGGX39 [36] = assay: as above
# How it was run: as §1
# HGGX6 [37] = assay: as above
# How it was run: as §1
# HABS [38] = assay: as above
# How it was run: as §1
# DIPGX7 [39] = assay: as above
# How it was run: as §1
# HGGX42 [40] = assay: maximal growth inhibition (yFin) relative to DMSO / staurosporine; higher = more efficacious
# How it was run: as §1
# HGGX2 [41] = assay: as above
# How it was run: as §1
# HGGX42 [42] = assay: EC50 (inflection of fitted growth-inhibition curve) (log10 M)
# How it was run: as §1
# HGGX2 [43] = assay: as above
# How it was run: as §1
# iAstro [44] = assay: maximal growth inhibition (yFin) relative to DMSO / staurosporine; higher = more efficacious
# How it was run: as §1
# iAstro [45] = assay: EC50 (inflection of fitted growth-inhibition curve) (log10 M)
# How it was run: as §1
smiles,measurement,setting,value
CC(C)c1cc(-c2n[nH]c(=O)n2-c2ccc3c(ccn3C)c2)c(O)cc1O [GANETESPIB],maximal growth inhibition,DIPGX9 [1],114%
same,maximal growth inhibition,SUDIPGXVII [2],61.6%
same,maximal growth inhibition,DIPGX29 [3],51.8%
same,maximal growth inhibition,SUDIPGXIII [4],56%
same,maximal growth inhibition,DIPGX37 [5],81.5%
same,maximal growth inhibition,SUDIPGXIX [6],87.3%
same,maximal growth inhibition,SUDIPGIV [7],58.4%
same,maximal growth inhibition,SUDIPGVI [8],41.2%
same,maximal growth inhibition,HGGX39 [9],77.3%
same,maximal growth inhibition,HGGX6 [10],39.8%
same,maximal growth inhibition,HABS [11],84.5%
same,maximal growth inhibition,DIPGX7 [12],44.1%
same,area under dose-response curve,DIPGX9 [13],440
same,area under dose-response curve,iAstro [14],164
same,area under dose-response curve,SUDIPGXXI,432
same,area under dose-response curve,SUDIPGXVII [15],242
same,area under dose-response curve,HGGX42 [16],226
same,area under dose-response curve,DIPGX29 [17],195
same,area under dose-response curve,SUDIPGXIII [18],215
same,area under dose-response curve,DIPGX37 [19],306
same,area under dose-response curve,SUDIPGXIX [20],395
same,area under dose-response curve,SUDIPGIV [21],238
same,area under dose-response curve,HGGX2 [22],257
same,area under dose-response curve,SUDIPGVI [23],158
same,area under dose-response curve,HGGX39 [24],271
same,area under dose-response curve,HGGX6 [25],153
same,area under dose-response curve,HABS [26],329
same,area under dose-response curve,DIPGX7 [27],106
same,EC50 (log10 M),DIPGX9 [28],-7.98
same,EC50 (log10 M),SUDIPGXVII [29],-7.92
same,EC50 (log10 M),DIPGX29 [30],-7.76
same,EC50 (log10 M),SUDIPGXIII [31],-7.84
same,EC50 (log10 M),DIPGX37 [32],-7.76
same,EC50 (log10 M),SUDIPGXIX [33],-8.72
same,EC50 (log10 M),SUDIPGIV [34],-8.08
same,EC50 (log10 M),SUDIPGVI [35],-7.86
same,EC50 (log10 M),HGGX39 [36],-7.51
same,EC50 (log10 M),HGGX6 [37],-7.85
same,EC50 (log10 M),HABS [38],-7.9
same,EC50 (log10 M),DIPGX7 [39],-6.1
N#CN=C(NCCCCCCOc1ccc(Cl)cc1)Nc1ccncc1 [GMX-1778],maximal growth inhibition,DIPGX9 [1],63.3%
same,maximal growth inhibition,SUDIPGXVII [2],71.3%
same,maximal growth inhibition,HGGX42 [40],90.6%
same,maximal growth inhibition,SUDIPGXIII [4],94.5%
same,maximal growth inhibition,DIPGX37 [5],77.2%
same,maximal growth inhibition,SUDIPGXIX [6],127%
same,maximal growth inhibition,SUDIPGIV [7],104%
same,maximal growth inhibition,HGGX2 [41],103%
same,maximal growth inhibition,SUDIPGVI [8],93.6%
same,maximal growth inhibition,HGGX39 [9],74.6%
same,maximal growth inhibition,HGGX6 [10],74.7%
same,maximal growth inhibition,HABS [11],76%
same,maximal growth inhibition,DIPGX7 [12],114%
same,area under dose-response curve,DIPGX9 [13],267
same,area under dose-response curve,iAstro [14],314
same,area under dose-response curve,SUDIPGXXI,587
same,area under dose-response curve,SUDIPGXVII [15],245
same,area under dose-response curve,HGGX42 [16],315
same,area under dose-response curve,DIPGX29 [17],465
same,area under dose-response curve,SUDIPGXIII [18],335
same,area under dose-response curve,DIPGX37 [19],311
same,area under dose-response curve,SUDIPGXIX [20],444
same,area under dose-response curve,SUDIPGIV [21],333
same,area under dose-response curve,HGGX2 [22],426
same,area under dose-response curve,SUDIPGVI [23],354
same,area under dose-response curve,HGGX39 [24],287
same,area under dose-response curve,HGGX6 [25],288
same,area under dose-response curve,HABS [26],275
same,area under dose-response curve,DIPGX7 [27],380
same,EC50 (log10 M),DIPGX9 [28],-8.21
same,EC50 (log10 M),SUDIPGXVII [29],-7.44
same,EC50 (log10 M),HGGX42 [42],-7.48
same,EC50 (log10 M),SUDIPGXIII [31],-7.54
same,EC50 (log10 M),DIPGX37 [32],-8.03
same,EC50 (log10 M),SUDIPGXIX [33],-7.5
same,EC50 (log10 M),SUDIPGIV [34],-7.21
same,EC50 (log10 M),HGGX2 [43],-8.25
same,EC50 (log10 M),SUDIPGVI [35],-7.79
same,EC50 (log10 M),HGGX39 [36],-7.85
same,EC50 (log10 M),HGGX6 [37],-7.85
same,EC50 (log10 M),HABS [38],-7.62
same,EC50 (log10 M),DIPGX7 [39],-7.31
CC[C@]1(O)C[C@H]2CN(CCc3c([nH]c4ccccc34)[C@@](C(=O)OC)(c3cc4c(cc3OC)N(C=O)[C@H]3[C@@](O)(C(=O)OC)[C@H](OC(C)=O)[C@]5(CC)C=CCN6CC[C@]43[C@@H]65)C2)C1 [VINCRISTINE],maximal growth inhibition,iAstro [44],61.4%
same,maximal growth inhibition,HGGX42 [40],97.3%
same,maximal growth inhibition,SUDIPGXIII [4],64%
same,maximal growth inhibition,SUDIPGXIX [6],98.2%
same,maximal growth inhibition,SUDIPGIV [7],101%
same,maximal growth inhibition,HGGX2 [41],92.8%
same,maximal growth inhibition,SUDIPGVI [8],77.9%
same,maximal growth inhibition,DIPGX7 [12],95.3%
same,area under dose-response curve,DIPGX9 [13],292
same,area under dose-response curve,iAstro [14],127
same,area under dose-response curve,SUDIPGXXI,606
same,area under dose-response curve,SUDIPGXVII [15],187
same,area under dose-response curve,HGGX42 [16],103
same,area under dose-response curve,DIPGX29 [17],163
same,area under dose-response curve,SUDIPGXIII [18],123
same,area under dose-response curve,DIPGX37 [19],189
same,area under dose-response curve,SUDIPGXIX [20],253
same,area under dose-response curve,SUDIPGIV [21],284
same,area under dose-response curve,HGGX2 [22],345
same,area under dose-response curve,SUDIPGVI [23],256
same,area under dose-response curve,HGGX39 [24],152
same,area under dose-response curve,HGGX6 [25],99.2
same,area under dose-response curve,HABS [26],200
same,area under dose-response curve,DIPGX7 [27],212
same,EC50 (log10 M),iAstro [45],-5.97
same,EC50 (log10 M),HGGX42 [42],-4.84
same,EC50 (log10 M),SUDIPGXIII [31],-5.77
same,EC50 (log10 M),SUDIPGXIX [33],-6.46
same,EC50 (log10 M),SUDIPGIV [34],-6.56
same,EC50 (log10 M),HGGX2 [43],-7.75
same,EC50 (log10 M),SUDIPGVI [35],-7.28
same,EC50 (log10 M),DIPGX7 [39],-5.71
